The values that follow come from US6333311A, “Useful properties of human lactoferrin and variants thereof” (Pharming, priority 1998, dated 2001).

The target of one assay is human transferrin (hTF) (Homo sapiens, UniProt P02787). Briefly: Competitive inhibition of hLF binding to solid-phase lipid A, competitor hTF. The note with it: hTF as competitor of 12.5 nM biotinylated hLF binding to immobilized lipid A.
The target in assay [1] is T1, human lactoferrin, iron-saturated hLF (Homo sapiens, UniProt P02788).
T1 construct: Human LF was purified from fresh human milk by cation-exchange chromatography; from tissue; host or cells: fresh human milk
T1 sequence (P02788 with tags, fused parts or gaps limits assumed): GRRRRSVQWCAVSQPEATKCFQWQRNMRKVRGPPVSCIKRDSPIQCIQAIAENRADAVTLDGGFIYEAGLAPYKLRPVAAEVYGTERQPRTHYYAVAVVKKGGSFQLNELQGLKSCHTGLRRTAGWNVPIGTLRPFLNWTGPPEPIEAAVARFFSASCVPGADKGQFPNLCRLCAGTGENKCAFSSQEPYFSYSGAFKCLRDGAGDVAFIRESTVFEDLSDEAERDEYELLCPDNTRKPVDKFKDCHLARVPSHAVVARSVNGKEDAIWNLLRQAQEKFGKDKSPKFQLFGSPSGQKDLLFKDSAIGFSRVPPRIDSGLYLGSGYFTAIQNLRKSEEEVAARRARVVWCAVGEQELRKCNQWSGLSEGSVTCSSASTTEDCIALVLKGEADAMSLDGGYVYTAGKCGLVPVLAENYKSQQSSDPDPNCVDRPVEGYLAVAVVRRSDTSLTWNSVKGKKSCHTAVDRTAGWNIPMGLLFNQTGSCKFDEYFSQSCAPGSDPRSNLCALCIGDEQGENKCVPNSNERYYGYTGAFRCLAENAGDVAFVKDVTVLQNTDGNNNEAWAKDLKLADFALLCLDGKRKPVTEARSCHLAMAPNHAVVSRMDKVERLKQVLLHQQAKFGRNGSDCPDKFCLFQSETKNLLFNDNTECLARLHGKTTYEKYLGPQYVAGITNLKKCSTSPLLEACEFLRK
Briefly: Competitive inhibition of hLF binding to solid-phase lipid A, competitor iron-saturated hLF. The note with it: concentration of unlabelled iron-saturated hLF giving 50% inhibition of the response of 12.5 nM biotinylated hLF on immobilized lipid A; mean ± SD of at least 4 experiments.

In assay [2] the target is T2, human lactoferrin, natural hLF (purified from human milk, 3.5% saturated with iron) (Homo sapiens, UniProt P02788).
T2 construct: Human LF was purified from fresh human milk by cation-exchange chromatography; from tissue; host or cells: fresh human milk
T2 sequence (P02788 with tags, fused parts or gaps limits assumed): as above
Briefly: Competitive inhibition of hLF binding to solid-phase lipid A, competitor natural hLF. The note with it: concentration of unlabelled natural hLF giving 50% inhibition of the response of 12.5 nM biotinylated hLF on immobilized lipid A; mean ± SD of at least 4 experiments.

Sequence of human transferrin (hTF) (P02787 20-698): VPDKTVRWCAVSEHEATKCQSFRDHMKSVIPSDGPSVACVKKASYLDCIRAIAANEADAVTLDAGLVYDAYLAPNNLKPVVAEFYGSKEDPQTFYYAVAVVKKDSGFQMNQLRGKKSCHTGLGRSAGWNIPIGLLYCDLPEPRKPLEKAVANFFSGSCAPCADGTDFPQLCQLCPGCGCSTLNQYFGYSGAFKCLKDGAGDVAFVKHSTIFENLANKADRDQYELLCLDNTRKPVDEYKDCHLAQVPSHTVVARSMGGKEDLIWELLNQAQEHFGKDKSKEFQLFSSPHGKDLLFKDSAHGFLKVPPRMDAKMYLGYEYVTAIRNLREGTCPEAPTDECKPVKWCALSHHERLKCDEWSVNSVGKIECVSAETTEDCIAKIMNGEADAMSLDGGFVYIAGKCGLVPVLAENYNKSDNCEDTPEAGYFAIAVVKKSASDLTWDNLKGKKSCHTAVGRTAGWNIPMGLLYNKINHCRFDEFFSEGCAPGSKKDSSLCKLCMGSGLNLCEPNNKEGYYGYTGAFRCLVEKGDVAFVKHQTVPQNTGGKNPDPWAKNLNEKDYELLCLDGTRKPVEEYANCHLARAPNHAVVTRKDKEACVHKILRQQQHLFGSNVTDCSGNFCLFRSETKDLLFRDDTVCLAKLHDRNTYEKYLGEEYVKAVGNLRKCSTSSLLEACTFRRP

A word on the IC50: it is the concentration that inhibits the measured activity by half. Read a high IC50 as weaker potency. With Lipid A, the “IC50 Competitor, hTF” value at human transferrin (hTF) is on record as “no competition”. The figures for the 50% inhibitory concentration (IC50) in assay [1] and in assay [2] were 1.3 ± 0.4 nM and 1.7 ± 0.5 nM, respectively.
